# Reference: patent US10604535B2, “Compounds, compositions and methods” (Denali Therapeutics Inc., priority 2016, dated 2020)
# Where two headings read alike, the source gives them in different places.
# What was measured:
# GST-hRIPK1 (8-327) = GST-hRIPK1 (8-327) (Homo sapiens (Human), UniProt Q13546); test: Fluorescent Polarization Binding (FP Binding) assay
# [1] = test system: FADD-deficient Jurkat cells; test: Cellular necroptosis assay (human TNFα-induced necrosis, CellTiter-Glo); format: cell-based; details: Homo sapiens, Jurkat, 48 h, read-out: Cell IC50
# GST-hRIPK1 (8-327), sequence (Q13546 8-327): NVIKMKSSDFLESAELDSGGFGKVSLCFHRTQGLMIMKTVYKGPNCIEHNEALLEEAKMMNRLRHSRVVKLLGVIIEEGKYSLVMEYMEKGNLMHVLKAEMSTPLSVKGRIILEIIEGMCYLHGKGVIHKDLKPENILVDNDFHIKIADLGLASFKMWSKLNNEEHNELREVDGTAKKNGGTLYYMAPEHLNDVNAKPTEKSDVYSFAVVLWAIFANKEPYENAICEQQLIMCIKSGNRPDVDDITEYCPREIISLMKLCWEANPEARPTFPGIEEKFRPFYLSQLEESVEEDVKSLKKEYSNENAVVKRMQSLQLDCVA
Structure (SMILES),IC50 (GST-hRIPK1 (8-327)),IC50 ([1]; TNFα 10 ng/mL),IC50 [1]
"CN1C(=O)[C@@H](NC(=O)c2nn(Cc3ccc(F)cc3)cc2F)COc2cccnc21 [Example 115, (S)-4-fluoro-1-(4-fluorobenzyl)-N-(5-methyl-4-oxo-2,3,4,5-tetrahydropyrido[3,2-b][1,4]oxazepin-3-yl)-1H-pyrazole-3-carboxamide]",0.1 to 1000 nM,0.1 to 1000 nM,
"CN1C(=O)[C@@H](NC(=O)c2nn(Cc3ccccn3)cc2F)COc2ccccc21 [Example 55, (S)-4-fluoro-N-(5-methyl-4-oxo-2,3,4,5-tetrahydrobenzo[b][1,4]oxazepin-3-yl)-1-(pyridin-2-ylmethyl)-1H-pyrazole-3-carboxamide]",0.1 to 1000 nM,0.1 to 1000 nM,
"O=C(N[C@H]1COc2cccnc2NC1=O)c1nn(Cc2ccccc2)cc1F [Example 57, (S)-1-benzyl-4-fluoro-N-(4-oxo-2,3,4,5-tetrahydropyrido[3,2-b][1,4]oxazepin-3-yl)-1H-pyrazole-3-carboxamide]",0.1 to 1000 nM,0.1 to 1000 nM,
"C[C@H]1Oc2cccnc2NC(=O)[C@H]1NC(=O)c1nnc(Cc2ccccc2)[nH]1 [Example 96, 5-benzyl-N-((2R,3S)-2-methyl-4-oxo-2,3,4,5-tetrahydropyrido[3,2-b][1,4]oxazepin-3-yl)-4H-1,2,4-triazole-3-carboxamide]",0.1 to 1000 nM,0.1 to 1000 nM,
"CN1C(=O)[C@@H](NC(=O)c2cn(Cc3ccccc3)nn2)COc2cccnc21 [Example 201, (S)-1-benzyl-N-(5-methyl-4-oxo-2,3,4,5-tetrahydropyrido[3,2-b][1,4]oxazepin-3-yl)-1H-1,2,3-triazole-4-carboxamide]",0.1 to 1000 nM,0.1 to 1000 nM,
"C[C@H]1Oc2cccnc2N(C)C(=O)[C@H]1NC(=O)c1cc(Oc2ccccc2F)ccn1 [Example 117, N-((2R,3S)-2,5-dimethyl-4-oxo-2,3,4,5-tetrahydropyrido[3,2-b][1,4]oxazepin-3-yl)-4-(2-fluorophenoxy)picolinamide]",0.1 to 1000 nM,0.1 to 1000 nM,
"CN1C(=O)[C@@H](NC(=O)c2nn(Cc3cccc(C#N)c3)cc2F)COc2cccnc21 [Example 144, (S)-1-(3-cyanobenzyl)-4-fluoro-N-(5-methyl-4-oxo-2,3,4,5-tetrahydropyrido[3,2-b][1,4]oxazepin-3-yl)-1H-pyrazole-3-carboxamide]",0.1 to 1000 nM,0.1 to 1000 nM,
"Cc1c(F)c(C(=O)N[C@H]2COc3ccccc3NC2=O)nn1Cc1ccccc1 [Example 45, (S)-1-benzyl-4-fluoro-5-methyl-N-(4-oxo-2,3,4,5-tetrahydrobenzo[b][1,4]oxazepin-3-yl)-1H-pyrazole-3-carboxamide]",0.1 to 1000 nM,0.1 to 1000 nM,
"CN1C(=O)[C@@H](NC(=O)c2cc(F)n(Cc3ccccc3)n2)COc2cccnc21 [Example 165, (S)-1-benzyl-5-fluoro-N-(5-methyl-4-oxo-2,3,4,5-tetrahydropyrido[3,2-b][1,4]oxazepin-3-yl)-1H-pyrazole-3-carboxamide]",0.1 to 1000 nM,,0.1 to 1000 nM
"CN1C(=O)[C@@H](NC(=O)c2nnc(Cc3ccccc3)[nH]2)CC2(CC2)c2ccccc21 [Example 44, (S)-5-benzyl-N-(1-methyl-2-oxo-1,2,3,4-tetrahydrospiro[benzo[b]azepine-5,1′-cyclopropan]-3-yl)-4H-1,2,4-triazole-3-carboxamide]",0.1 to 1000 nM,0.1 to 1000 nM,
"CN1C(=O)C(NC(=O)c2nnc(Cc3ccccc3)[nH]2)CC(F)(F)c2ccccc21 (stereo not shown) [Example 10, 5-benzyl-N-(5,5-difluoro-1-methyl-2-oxo-2,3,4,5-tetrahydro-1H-benzo[b]azepin-3-yl)-4H-1,2,4-triazole-3-carboxamide]",0.1 to 1000 nM,0.1 to 1000 nM,
"CN1C(=O)[C@@H](NC(=O)c2nnc(Cc3ccccc3)s2)[C@H]2C[C@H]2c2cccnc21 [Example 120A, 5-benzyl-N-((1aS,2S,8bR)-4-methyl-3-oxo-1,1a,2,3,4,8b-hexahydrocyclopropa[d]pyrido[2,3-b]azepin-2-yl)-1,3,4-thiadiazole-2-carboxamide]",0.1 to 1000 nM,0.1 to 1000 nM,
"O=C(N[C@H]1CCc2ccccc2-n2ccnc21)c1cc(Oc2ccccc2F)cnn1 [Example 116, (S)—N-(5,6-dihydro-4H-benzo[f]imidazo[1,2-a]azepin-4-yl)-5-(2-fluorophenoxy)pyridazine-3-carboxamide]",0.1 to 1000 nM,0.1 to 1000 nM,
"CN1C(=O)[C@@H](NC(=O)c2nnc(Cc3ccccc3)[nH]2)COc2c(C#N)cccc21 [Example 56, (S)-5-benzyl-N-(9-cyano-5-methyl-4-oxo-2,3,4,5-tetrahydrobenzo[b][1,4]oxazepin-3-yl)-2H-1,2,4-triazole-3-carboxamide]",0.1 to 1000 nM,0.1 to 1000 nM,
"C=C1C[C@H](NC(=O)c2cc(Cc3ccccc3)on2)C(=O)N(C)c2ccccc21 [Example 3, (S)-5-benzyl-N-(1-methyl-5-methylene-2-oxo-2,3,4,5-tetrahydro-1H-benzo[b]azepin-3-yl)isoxazole-3-carboxamide]",0.1 to 1000 nM,0.1 to 1000 nM,
"CN1C(=O)[C@@H](NC(=O)c2nnc(Cc3ccccc3)[nH]2)CCc2c1cnn2C [Example 101B, (S)-5-benzyl-N-(1,4-dimethyl-5-oxo-1,4,5,6,7,8-hexahydropyrazolo[4,3-b]azepin-6-yl)-4H-1,2,4-triazole-3-carboxamide]",0.1 to 1000 nM,0.1 to 1000 nM,

# The next lines start with results.
IC50 (GST-hRIPK1 (8-327)),Structure (SMILES),IC50 ([1]; TNFα 10 ng/mL),IC50 [1]
0.1 to 1000 nM,"CN1C(=O)[C@@H](NC(=O)c2nnc(C3(c4ccccc4)CC3)o2)CCc2nccnc21 [Example 180A, (S)—N-(5-methyl-6-oxo-6,7,8,9-tetrahydro-5H-pyrazino[2,3-b]azepin-7-yl)-5-(1-phenylcyclopropyl)-1,3,4-oxadiazole-2-carboxamide]",0.1 to 1000 nM,
0.1 to 1000 nM,"Cc1ncccc1Cn1cc(F)c(C(=O)N[C@H]2CCc3nccnc3N(C)C2=O)n1 [Example 182B, (S)-4-fluoro-N-(5-methyl-6-oxo-6,7,8,9-tetrahydro-5H-pyrazino[2,3-b]azepin-7-yl)-1-((2-methylpyridin-3-yl)methyl)-1H-pyrazole-3-carboxamide]",0.1 to 1000 nM,
0.1 to 1000 nM,"C[C@H]1Oc2cccnc2N(C)C(=O)[C@H]1NC(=O)c1nn(Cc2ccc(F)cc2)cc1F [Example 143, N-((2R,3S)-2,5-dimethyl-4-oxo-2,3,4,5-tetrahydropyrido[3,2-b][1,4]oxazepin-3-yl)-4-fluoro-1-(4-fluorobenzyl)-1H-pyrazole-3-carboxamide]",0.1 to 1000 nM,
0.1 to 1000 nM,"C[C@H]1Oc2cccnc2N(C)C(=O)[C@H]1NC(=O)c1nn(Cc2ccccc2)cc1Cl [Example 132, 1-Benzyl-4-chloro-N-((2R,3S)-2,5-dimethyl-4-oxo-2,3,4,5-tetrahydropyrido[3,2-b][1,4]oxazepin-3-yl)-1H-pyrazole-3-carboxamide]",0.1 to 1000 nM,
0.1 to 1000 nM,"CN1C(=O)[C@@H](NC(=O)c2cc(Oc3ccccc3F)cnn2)COc2cccnc21 [Example 149, (S)-5-(2-fluorophenoxy)-N-(5-methyl-4-oxo-2,3,4,5-tetrahydropyrido[3,2-b][1,4]oxazepin-3-yl)pyridazine-3-carboxamide]",0.1 to 1000 nM,
0.1 to 1000 nM,"C[C@H]1Oc2cccnc2N(C)C(=O)[C@H]1NC(=O)c1cc(Cc2ccccc2)no1 [Example 122, 3-benzyl-N-((2R,3S)-2,5-dimethyl-4-oxo-2,3,4,5-tetrahydropyrido[3,2-b]oxazepin-3-yl)isoxazole-5-carboxamide]",0.1 to 1000 nM,
0.1 to 1000 nM,"CN1C(=O)[C@@H](NC(=O)c2nn(Cc3ccccc3F)cc2F)CCc2nccnc21 [Example 178A, (S)-4-fluoro-1-(2-fluorobenzyl)-N-(5-methyl-6-oxo-6,7,8,9-tetrahydro-5H-pyrazino[2,3-b]azepin-7-yl)-1H-pyrazole-3-carboxamide]",0.1 to 1000 nM,
0.1 to 1000 nM,"CN1C(=O)[C@@H](NC(=O)c2cc(F)n(Cc3ccc(F)cc3)n2)COc2cccnc21 [Example 166, (S)-5-fluoro-1-(4-fluorobenzyl)-N-(5-methyl-4-oxo-2,3,4,5-tetrahydropyrido[3,2-b][1,4]oxazepin-3-yl)-1H-pyrazole-3-carboxamide]",0.1 to 1000 nM,
0.1 to 1000 nM,"CN1C(=O)[C@@H](NC(=O)c2nc(F)c(Cc3ccccc3)s2)COc2cccnc21 [Example 126, (S)-5-benzyl-4-fluoro-N-(5-methyl-4-oxo-2,3,4,5-tetrahydropyrido[3,2-b][1,4]oxazepin-3-yl)thiazole-2-carboxamide]",0.1 to 1000 nM,
0.1 to 1000 nM,"CN1C(=O)[C@@H](NC(=O)c2nn(Cc3cncc(C#N)c3)cc2F)COc2cccnc21 [Example 168, (S)-1-((5-cyanopyridin-3-yl)methyl)-4-fluoro-N-(5-methyl-4-oxo-2,3,4,5-tetrahydropyrido[3,2-b][1,4]oxazepin-3-yl)-1H-pyrazole-3-carboxamide]",0.1 to 1000 nM,
0.1 to 1000 nM,"CN1C(=O)[C@@H](NC(=O)c2nn(Cc3cc(F)cc(C#N)c3)cc2F)COc2cccnc21 [Example 130, (S)-1-(3-Cyano-5-fluorobenzyl)-4-fluoro-N-(5-methyl-4-oxo-2,3,4,5-tetrahydropyrido[3,2-b][1,4]oxazepin-3-yl)-1H-pyrazole-3-carboxamide]",0.1 to 1000 nM,
0.1 to 1000 nM,"C[C@H]1Oc2cccnc2N(C)C(=O)[C@H]1NC(=O)c1nnc(C2(c3ccccc3)CC2)o1 [Example 138, N-((2R,3S)-2,5-dimethyl-4-oxo-2,3,4,5-tetrahydropyrido[3,2-b][1,4]oxazepin-3-yl)-5-(1-phenylcyclopropyl)-1,3,4-oxadiazole-2-carboxamide]",0.1 to 1000 nM,
0.1 to 1000 nM,"C[C@H]1Oc2cccnc2N(C)C(=O)[C@H]1NC(=O)c1cc(Oc2ccccc2F)cnn1 [Example 139, N-((2R,3S)-2,5-dimethyl-4-oxo-2,3,4,5-tetrahydropyrido[3,2-b][1,4]oxazepin-3-yl)-5-(2-fluorophenoxy)pyridazine-3-carboxamide]",0.1 to 1000 nM,
